For assay [1], the target named is T1, MMP-1 (Homo sapiens, UniProt P03956).
T1 sequence (P03956 100-469): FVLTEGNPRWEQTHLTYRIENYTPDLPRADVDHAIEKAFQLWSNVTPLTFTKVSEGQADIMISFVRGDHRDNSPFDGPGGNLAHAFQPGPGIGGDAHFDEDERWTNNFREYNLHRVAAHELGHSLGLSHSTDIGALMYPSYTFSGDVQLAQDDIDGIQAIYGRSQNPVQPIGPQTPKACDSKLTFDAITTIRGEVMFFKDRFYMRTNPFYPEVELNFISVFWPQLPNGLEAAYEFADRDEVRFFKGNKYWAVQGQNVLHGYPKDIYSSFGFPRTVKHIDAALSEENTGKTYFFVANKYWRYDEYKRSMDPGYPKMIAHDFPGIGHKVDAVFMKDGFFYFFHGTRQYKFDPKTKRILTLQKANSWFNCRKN
Kind of assay: MMP-1 inhibition (thiopeptide or fluorescent peptide substrate). It counts as biochemical. The settings on record: for inhibition at 10 µM: read-out: IC50 (nM) or % Inhibition (µM) MMP-1; for IC50: plain number = IC50. The protocol: (§1) The enzyme activity is measured by the rate of the color increase. The thiopeptide substrate is made up fresh as a 20 mM stock in 100% DMSO and the DTNB is dissolved in 100% DMSO as a 100 mM stock and stored in the dark at room temperature. Both the substrate and DTNB are diluted together to 1 mM with substrate buffer (50 mM HEPES pH 7.5, 5 mM CaCl2) before use. The stock of enzyme is diluted with buffer (50 mM HEPES, pH 7.5, 5 mM CaCl2, 0.02% Brij) to the desired final concentration.
(§2) Alternatively, a fluorescent peptide substrate is used. In this test procedure, the peptide substrate contains a fluorescent group and a quenching group. Upon cleavage of the substrate by an MMP, the fluorescence that is generated is quantitated on the fluorescence plate reader. The assay is run in HCBC assay buffer (50mM HEPES, pH 7.0, 5 mM Ca^+2, 0.02% Brij, 0.5% Cysteine), with human recombinant MMP-1, MMP-9, or MMP-13. The substrate is dissolved in methanol and stored frozen in 1 mM aliquots. For the assay, substrate and enzymes are diluted in HCBC buffer to the desired concentrations. Compounds are added to the 96 well plate containing enzyme and the reaction is started by the addition of substrate.
(§3) For either the thiopeptide or fluorescent peptide test procedures, the slope of the line is calculated and represents the reaction rate. The linearity of the reaction rate is confirmed (r^2 >0.85). The mean (x±sem) of the control rate is calculated and compared for statistical significance (p<0.05) with drug-treated rates using Dunnett's multiple comparison test.

Assay [2] concerns the target MMP-9 (Homo sapiens, UniProt P14780). Put plainly: MMP-9 inhibition (thiopeptide or fluorescent peptide substrate). It is filed as biochemical. The protocol:
as §1, §2, §3

The target in assay [3] is MMP-13 (Homo sapiens, UniProt P45452). Put plainly: MMP-13 inhibition (thiopeptide or fluorescent peptide substrate). It is filed as biochemical. How it is done: as §1, §2, §3
For assay [4], the target named is TNF-α converting enzyme (TACE) (Homo sapiens, UniProt P78536). Kind of assay: TACE inhibition (fluorescent peptidyl substrate). It is filed as biochemical. Particulars: read-out: IC50 (nM) or % Inhibition (µM) TACE. The protocol: Using 96-well black microtiter plates, each well receives a solution composed of 10 µL TACE (final concentration 1µg/mL), 70µL Tris buffer, pH 7.4 containing 10% glycerol (final concentration 10 mM), and 10 µL of test compound solution in DMSO (final concentration 1µM, DMSO concentration <1%) and incubated for 10 minutes at room temperature. The reaction is initiated by addition of a fluorescent peptidyl substrate (final concentration 100 µM) to each well and then shaking on a shaker for 5 sec.
TNF-α converting enzyme (TACE), sequence (P78536 215-824, species assumed): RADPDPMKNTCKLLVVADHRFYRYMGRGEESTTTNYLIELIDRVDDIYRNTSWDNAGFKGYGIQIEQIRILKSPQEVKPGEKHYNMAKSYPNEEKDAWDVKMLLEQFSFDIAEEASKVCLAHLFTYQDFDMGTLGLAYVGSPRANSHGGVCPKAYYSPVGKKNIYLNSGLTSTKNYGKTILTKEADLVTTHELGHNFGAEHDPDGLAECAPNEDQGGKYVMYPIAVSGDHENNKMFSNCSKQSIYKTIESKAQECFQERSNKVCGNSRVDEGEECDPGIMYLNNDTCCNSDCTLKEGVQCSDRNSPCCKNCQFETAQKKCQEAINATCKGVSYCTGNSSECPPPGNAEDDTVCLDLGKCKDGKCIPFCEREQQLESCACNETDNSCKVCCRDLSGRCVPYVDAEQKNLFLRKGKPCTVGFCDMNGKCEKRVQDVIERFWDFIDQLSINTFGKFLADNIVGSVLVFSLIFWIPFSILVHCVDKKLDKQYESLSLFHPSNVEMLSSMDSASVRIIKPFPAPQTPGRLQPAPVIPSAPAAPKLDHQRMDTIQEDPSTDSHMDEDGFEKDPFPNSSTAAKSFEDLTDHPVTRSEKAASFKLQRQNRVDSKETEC
The reaction is read (excitation 340 nm, emission 420 nm) for 10 min. and the increase in fluorescence over time is plotted as a linear line. The slope of the line is calculated and represents the reaction rate.
The linearity of the reaction rate is confirmed (r^2 >0.85). The mean (x±sem) of the control rate is calculated and compared for statistical significance (p<0.05) with drug-treated rates using Dunnett's multiple comparison test.

Assay [5] deals with THP-1 cells. Put plainly: THP-1 soluble protein assay (LPS-stimulated human monocytic THP-1 cells). Particulars: Homo sapiens, LPS-stimulated THP-1 cells, read-out: % Inhib. @ 3µM THP. It counts as cell-based. From the text:
Mitogenic stimulation of THP-1 cells cause differentiation into macrophage like cells with concomitant secretion of tumor necrosis factor (TNF-a) and TNF receptor (TNF-R p75/80 and TNF-R p55/60) and Interleukin-8 (IL-8), among other proteins. In addition, non-stimulated THP-1 cells shed both the p75/80 and the p55/60 receptors over time. The release of membrane bound TNF-α and possibly TNF-R p75/80 and TNF-R p55/60, but not IL-8, is mediated by an enzyme called TNF-a converting enzyme or TACE.
THP-1 cells (from ATCC) are a human monocytic cell line which were obtained from the peripheral blood of a person with acute monocytic leukemia. They can be grown in culture and differentiated into macrophage like cells by stimulation with mitogens.
Each vial of cells are cultured for about two weeks prior to being used for an assay and then are used for only 4 to 6 weeks to screen compounds.
Cell exposure to DMSO was limited to 0.1 % final concentration. […] Compounds can be evaluated for their effect on basal (non-stimulated) shedding of the receptors by replacing the LPS with […] of THP-1 media. Plates are placed into an incubator set at 5% CO2 and at 37°C. After 4 hours of incubation, […] of tissue culture supernatant (TCS) is removed for use in an TNF-a ELISA. Following 24 hours of incubation, […] of TCS is removed and used for analysis in TNF-R p75/80, TNF-R p55/60 and IL-8 ELISAs.
In addition, at the 24 hours timepoint, and the cells for each treatment group are collected by resuspension in 500 µl/well of THP-1 media and transferred into a FACS tube. […] The samples are run on a Becton Dickinson FaxCaliber FLOW cytometry machine and the amount of dye taken up by each cell is measured in the high red wavelength (FL3). Only cells with compromised membranes (dead or dying) can take up PI. The percent of live cells is calculated by the number of cells not stained with PI, divided by the total number of cells in the sample. The viability values calculated for the drug treated groups were compared to the viability value calculated for the vehicle treated mitogen stimulated group ("vehicle positive control") to determine the "percent change from control". This "percent change from control" value is an indicator of drug toxicity.
The quantity of soluble TNF-a, TNF-R p75/80 and TNF-R p55/60 and IL-8 in the TCS of the THP-1 cell cultures are obtained with commercially available ELISAs from R&D Systems, by extrapolation from a standard curve generated with kit standards. The number of cells that either take up or exclude PI are measured by the FLOW cytometry machine and visualized by histograms using commercially available Cytologic software for each treatment group including all controls.
Biological variability in the magnitude of the response of THP-1 cell cultures requires that experiments be compared on the basis of percent change from "vehicle positive control" for each drug concentration. Percent change in each soluble protein evaluated from the "vehicle positive control" was calculated for each compound concentration with the following formula: % Change =(pg/ml(compound) - pg/ml (veh pos control))/(pg/ml (veh pos control) - pg/ml(veh neg control))x 100 [formula]
For the soluble protein (TNF-a, p75/80, p55/60, IL-8) studies under stimulated conditions, the mean pg/ml of duplicate wells were determined and the results expressed as percent change from "vehicle positive control". For the soluble protein (p75/80 and p55/60 receptors) studies under non-stimulated conditions, the mean pg/ml of duplicate wells were determined and the results expressed as percent change from "vehicle positive control" utilizing the following formula: % Change =(pg/ml (compound neg control) - pg/ml (veh neg control)/(pg/ml (veh neg control))X 100 [formula]
IC50 values for each compound are calculated by non-linear regression analysis using customized software utilizing the JUMP statistical package.

Where a name gives a salt, the structure may show the parent alone.

Among the data in EP1144369B1 (Wyeth Holdings Corporation, priority 1999, dated 2000) are inhibition and IC50 values, retold here.

MMP-9, sequence (P14780 94-707): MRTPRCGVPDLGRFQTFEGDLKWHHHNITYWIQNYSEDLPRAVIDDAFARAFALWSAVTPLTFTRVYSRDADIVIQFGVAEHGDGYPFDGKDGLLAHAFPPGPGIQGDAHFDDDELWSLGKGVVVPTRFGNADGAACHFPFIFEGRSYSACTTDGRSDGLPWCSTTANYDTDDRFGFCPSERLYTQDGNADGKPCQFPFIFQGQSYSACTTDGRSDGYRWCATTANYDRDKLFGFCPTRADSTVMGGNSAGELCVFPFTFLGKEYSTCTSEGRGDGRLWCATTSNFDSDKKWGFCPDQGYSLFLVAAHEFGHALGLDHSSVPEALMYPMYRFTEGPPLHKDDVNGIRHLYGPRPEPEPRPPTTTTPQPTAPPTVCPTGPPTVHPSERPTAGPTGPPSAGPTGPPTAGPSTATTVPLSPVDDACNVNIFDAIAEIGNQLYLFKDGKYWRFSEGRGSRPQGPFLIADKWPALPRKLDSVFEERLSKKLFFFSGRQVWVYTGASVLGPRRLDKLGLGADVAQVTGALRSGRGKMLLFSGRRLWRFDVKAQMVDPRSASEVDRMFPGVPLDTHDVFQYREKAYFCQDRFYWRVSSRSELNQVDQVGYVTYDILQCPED

On to `CCN(CC)CC#CCOc1ccc(S(=O)(=O)N(C)c2c(C)cc(Br)cc2C(=O)NO)cc1` [Example 66, 5-Bromo-2-{[4-(4-diethylamino-but-2-ynyloxy)-benzenesulfonyl]-methyl-amino}-N-hydroxy-3-methyl-benzamide], for which the inhibition at 10 µM in assay [1] came out at 21%. Further, the values for the IC50 in assay [2], in assay [3] and in assay [4] were 2830 nM, 2380 nM and 346 nM, respectively. Moreover, the inhibition at 3 µM in assay [5] was 5%.
With `Cc1cc(Br)cc(C(=O)NO)c1N(C)S(=O)(=O)c1ccc(OCC#CCNCCCN(C)C)cc1` [Example 33, 5-Bromo-2-({4-[4-(3-dimethylamino-propylamino)-but-2-ynyloxy]-benzenesulfonyl}-methyl-amino)-N-hydroxy-3-methyl-benzamide], in assay [1], the inhibition at 10 µM is 32%. Further, the IC50 in assay [2] is 1200 nM; in assay [3] it was 908 nM; in assay [4], 29 nM. In assay [5], the inhibition at 3 µM came to 14%.
For the compound `Cc1cc(Br)cc(C(=O)NO)c1N(C)S(=O)(=O)c1ccc(OCC#Cc2cccc(O)c2)cc1` [Example 84, 5-Bromo-N-hydroxy-2-({4-[3-(3-hydroxy-phenyl)-prop-2-ynyloxy]-benzenesulfonyl}-methyl-amino)-3-methyl-benzamide], the IC50 in assay [1] was 113 nM; in assay [2] it was 694 nM; in assay [3], 189 nM; in assay [4], 34 nM. Besides, the inhibition at 3 µM in assay [5] worked out at 0%.
For the compound `CC#CCOc1ccc(S(=O)(=O)N(C)c2c(CN3CCN(C)CC3)cc(-c3ccccc3)cc2C(=O)NO)cc1` [Example 76, 4-[(4-But-2-ynyloxy-benzenesulfonyl)-methyl-amino]-5-(4-methyl-piperazin-1-ylmethyl)-biphenyl-3-carboxylic acid hydroxyamide dihydro-chloride salt], the IC50 in assay [1] amounted to 1920 nM; in assay [2], 28 nM; in assay [3], 47 nM; in assay [4], 42 nM. In addition, in assay [5], the inhibition at 3 µM was 95%.
